# Assay results taken from publication PMC7531004, “Discovery of gramicidin A analogues with altered activities by multidimensional screening of a one-bead-one-compound library” (Nature Communications, 2020).
# Where a SMILES comes first, the peptide text is derived from it. [ ]: non-standard residue; d: D form. The star is where a group is joined. NHCH2CH2OH = OCCN*; For = O=C*
# Assays:
# [1] = system: P388 mouse leukemia cells; conditions: 92 h
# Outline: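 First, library peptide stocks are diluted 250-fold in RPMI1640 with 10% heat-inactivated FBS. Next, they are mixed with P388 cells to give 1 × 10^4 cells/mL and incubated 92 h at 37 °C, 5% CO2. Finally, viability (%) is scored by WST-1 absorbance at 415 nm.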
# [2] = system: Streptococcus pyogenes SSI-9; assay: Antibacterial activity assay of bead-derived peptides (three concentrations); type: cell-based; set-up: key: +++: inhibition by the 640-fold diluted peptide solution; ++: inhibition by the 160-fold diluted solution; +: inhibition by the 40-fold diluted solution; -: no inhibition; conditions: S. pyogenes, bead-derived peptide solution, three concentrations
# Outline: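 Three stock dilutions per peptide (none, 4-fold, 16-fold in DMSO) are screened in 96-well format. The medium is blood-supplemented cation-adjusted MHB, inoculated with 2 × 10^5 CFU S. pyogenes SSI-9. Growth is read as cell precipitation at 18 h, 37 °C.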
# [3] = H+/Na+ transport assay of bead-derived peptides (one-point); type: biochemical; set-up: key: relative activity; mean of two control wells = 1.00; conditions: bead-derived peptide solution, EYPC/EYPG LUVs;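 also: relative to parent gramicidin A activity set to 1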
# Outline: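 Pyranine (1.0 mM)-loaded LUVs containing egg yolk phosphatidylglycerol were prepared by film hydration, sonication and extrusion, then mixed with diluted bead-derived peptide in 96-well format and vortexed 30 min at room temperature. Fluorescence was normalized between untreated LUVs (0%) and Triton X-100 lysis (100%).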
SMILES,cell viability/% [1],antibacterial activity [2],H+/Na+ transport activity normalized against the value of 1 (1.00) [3]
CC(C)C[C@@H](NC(=O)[C@H](C)NC(=O)CNC(=O)[C@@H](NC=O)C(C)C)C(=O)N[C@@H](C)C(=O)N[C@@H](C(=O)N[C@H](C(=O)N[C@@H](C(=O)N[C@@H](Cc1c[nH]c2ccccc12)C(=O)N[C@@H](C(=O)N[C@@H](Cc1c[nH]c2ccccc12)C(=O)N[C@H](CC(C)C)C(=O)N[C@@H](Cc1c[nH]c2ccccc12)C(=O)N[C@@H](C(=O)N[C@@H](Cc1c[nH]c2ccccc12)C(=O)NCCO)C(C)C)C(C)C)C(C)C)C(C)C)[C@H](C)O [compound 9030] (For-VGA[dL]A[dT]V[dV]W[dV]W[dL]W[dV]W-NHCH2CH2OH),71.3%,-,1.12
CC(C)C[C@@H](NC(=O)[C@H](C)NC(=O)CNC(=O)[C@@H](NC=O)C(C)C)C(=O)N[C@@H](C)C(=O)N[C@@H](C(=O)N[C@H](C(=O)N[C@@H](C(=O)N[C@@H](Cc1c[nH]c2ccccc12)C(=O)N[C@@H](C(=O)N[C@@H](Cc1c[nH]c2ccccc12)C(=O)N[C@H](CC(C)C)C(=O)N[C@@H](Cc1c[nH]c2ccccc12)C(=O)N[C@@H](C(=O)N[C@@H](Cc1c[nH]c2ccccc12)C(=O)NCCO)C(C)C)C(C)C)C(C)C)C(C)C)C(C)C [compound 9036] (For-VGA[dL]A[dV]V[dV]W[dV]W[dL]W[dV]W-NHCH2CH2OH),94.7%,+,1.18
CC(C)C[C@@H](NC(=O)[C@H](Cc1c[nH]c2ccccc12)NC(=O)[C@H](NC(=O)[C@H](Cc1c[nH]c2ccccc12)NC(=O)[C@H](NC(=O)[C@H](Cc1c[nH]c2ccccc12)NC(=O)[C@H](NC(=O)[C@@H](NC(=O)[C@H](NC(=O)[C@H](C)NC(=O)[C@H](NC(=O)[C@H](C)NC(=O)CNC(=O)[C@@H](NC=O)C(C)C)C(C)C)[C@H](C)O)C(C)C)C(C)C)C(C)C)C(C)C)C(=O)N[C@@H](Cc1c[nH]c2ccccc12)C(=O)NCCO [compound 9058] (For-VGA[dV]A[dT]V[dV]W[dV]W[dV]W[dL]W-NHCH2CH2OH),58.0%,-,1.14
CC(C)C[C@@H](NC(=O)[C@H](Cc1c[nH]c2ccccc12)NC(=O)[C@H](NC(=O)[C@H](Cc1c[nH]c2ccccc12)NC(=O)[C@H](NC(=O)[C@H](Cc1c[nH]c2ccccc12)NC(=O)[C@@H](CC(C)C)NC(=O)[C@@H](NC(=O)[C@H](NC(=O)[C@H](C)NC(=O)[C@H](NC(=O)[C@H](C)NC(=O)CNC(=O)[C@@H](NC=O)C(C)C)[C@H](C)O)C(C)C)C(C)C)C(C)C)C(C)C)C(=O)N[C@@H](Cc1c[nH]c2ccccc12)C(=O)NCCO [compound 9075] (For-VGA[dT]A[dV]V[dL]W[dV]W[dV]W[dL]W-NHCH2CH2OH),58.6%,-,1.01
CC(C)C[C@@H](NC(=O)[C@H](C)NC(=O)[C@H](NC(=O)[C@H](C)NC(=O)CNC(=O)[C@@H](NC=O)C(C)C)[C@H](C)O)C(=O)N[C@H](C(=O)N[C@@H](C(=O)N[C@@H](Cc1c[nH]c2ccccc12)C(=O)N[C@@H](C(=O)N[C@@H](Cc1c[nH]c2ccccc12)C(=O)N[C@H](CC(C)C)C(=O)N[C@@H](Cc1c[nH]c2ccccc12)C(=O)N[C@H](CC(C)C)C(=O)N[C@@H](Cc1c[nH]c2ccccc12)C(=O)NCCO)C(C)C)C(C)C)C(C)C [compound 9112] (For-VGA[dT]A[dL]V[dV]W[dV]W[dL]W[dL]W-NHCH2CH2OH),72.6%,-,1.10
CC(C)C[C@@H](NC(=O)[C@H](C)NC(=O)[C@H](NC(=O)[C@H](C)NC(=O)CNC(=O)[C@@H](NC=O)C(C)C)[C@H](C)O)C(=O)N[C@H](C(=O)N[C@H](CC(C)C)C(=O)N[C@@H](Cc1c[nH]c2ccccc12)C(=O)N[C@H](CC(C)C)C(=O)N[C@@H](Cc1c[nH]c2ccccc12)C(=O)N[C@@H](C(=O)N[C@@H](Cc1c[nH]c2ccccc12)C(=O)N[C@@H](C(=O)N[C@@H](Cc1c[nH]c2ccccc12)C(=O)NCCO)C(C)C)C(C)C)C(C)C [compound 9125] (For-VGA[dT]A[dL]V[dL]W[dL]W[dV]W[dV]W-NHCH2CH2OH),44.2%,-,1.04
CC(C)C[C@@H](NC(=O)[C@H](C)NC(=O)[C@H](NC(=O)[C@H](C)NC(=O)CNC(=O)[C@@H](NC=O)C(C)C)[C@H](C)O)C(=O)N[C@H](C(=O)N[C@H](CC(C)C)C(=O)N[C@@H](Cc1c[nH]c2ccccc12)C(=O)N[C@@H](C(=O)N[C@@H](Cc1c[nH]c2ccccc12)C(=O)N[C@@H](C(=O)N[C@@H](Cc1c[nH]c2ccccc12)C(=O)N[C@H](CC(C)C)C(=O)N[C@@H](Cc1c[nH]c2ccccc12)C(=O)NCCO)C(C)C)C(C)C)C(C)C [compound 9145] (For-VGA[dT]A[dL]V[dL]W[dV]W[dV]W[dL]W-NHCH2CH2OH),70.9%,-,1.03
CC(C)C[C@@H](NC(=O)[C@H](C)NC(=O)[C@H](NC(=O)[C@H](C)NC(=O)CNC(=O)[C@@H](NC=O)C(C)C)C(C)C)C(=O)N[C@H](C(=O)N[C@@H](C(=O)N[C@@H](Cc1c[nH]c2ccccc12)C(=O)N[C@@H](C(=O)N[C@@H](Cc1c[nH]c2ccccc12)C(=O)N[C@@H](C(=O)N[C@@H](Cc1c[nH]c2ccccc12)C(=O)N[C@H](CC(C)C)C(=O)N[C@@H](Cc1c[nH]c2ccccc12)C(=O)NCCO)C(C)C)C(C)C)C(C)C)C(C)C [compound 9192] (For-VGA[dV]A[dL]V[dV]W[dV]W[dV]W[dL]W-NHCH2CH2OH),100.0%,-,1.07
CC(C)C[C@@H](NC(=O)[C@H](C)NC(=O)CNC(=O)[C@@H](NC=O)C(C)C)C(=O)N[C@@H](C)C(=O)N[C@@H](C(=O)N[C@H](C(=O)N[C@@H](C(=O)N[C@@H](Cc1c[nH]c2ccccc12)C(=O)N[C@@H](C(=O)N[C@@H](Cc1c[nH]c2ccccc12)C(=O)N[C@@H](C(=O)N[C@@H](Cc1c[nH]c2ccccc12)C(=O)N[C@H](CC(C)C)C(=O)N[C@@H](Cc1c[nH]c2ccccc12)C(=O)NCCO)C(C)C)C(C)C)C(C)C)C(C)C)C(C)C [compound 9223] (For-VGA[dL]A[dV]V[dV]W[dV]W[dV]W[dL]W-NHCH2CH2OH),100.0%,+,1.03
CNC(=O)C[C@@H](NC(=O)[C@@H](NC(=O)[C@@H](CC(C)C)NC(=O)[C@H](C)NC(=O)[C@H](NC(=O)[C@H](C)NC(=O)CNC(=O)[C@@H](NC=O)C(C)C)C(C)C)C(C)C)C(=O)N[C@@H](Cc1c[nH]c2ccccc12)C(=O)N[C@H](CC(C)C)C(=O)N[C@@H](Cc1c[nH]c2ccccc12)C(=O)N[C@H](CC(C)C)C(=O)N[C@@H](Cc1c[nH]c2ccccc12)C(=O)N[C@@H](C(=O)N[C@@H](Cc1c[nH]c2ccccc12)C(=O)NCCO)C(C)C [compound 9229] (For-VGA[dV]A[dL]V[dD](NHMe)W[dL]W[dL]W[dV]W-NHCH2CH2OH),100.0%,-,1.15
CC(C)C[C@@H](NC(=O)[C@H](Cc1c[nH]c2ccccc12)NC(=O)[C@H](NC(=O)[C@H](Cc1c[nH]c2ccccc12)NC(=O)[C@@H](CC(C)C)NC(=O)[C@H](Cc1c[nH]c2ccccc12)NC(=O)[C@H](NC(=O)[C@@H](NC(=O)[C@H](NC(=O)[C@H](C)NC(=O)[C@H](NC(=O)[C@H](C)NC(=O)CNC(=O)[C@@H](NC=O)C(C)C)C(C)C)C(C)C)C(C)C)C(C)C)C(C)C)C(=O)N[C@@H](Cc1c[nH]c2ccccc12)C(=O)NCCO [compound 9293] (For-VGA[dV]A[dV]V[dV]W[dL]W[dV]W[dL]W-NHCH2CH2OH),4.3%,++,1.05
CNC(=O)C[C@@H](NC(=O)[C@@H](NC(=O)[C@H](NC(=O)[C@H](C)NC(=O)[C@@H](CC(C)C)NC(=O)[C@H](C)NC(=O)CNC(=O)[C@@H](NC=O)C(C)C)C(C)C)C(C)C)C(=O)N[C@@H](Cc1c[nH]c2ccccc12)C(=O)N[C@H](CC(C)C)C(=O)N[C@@H](Cc1c[nH]c2ccccc12)C(=O)N[C@H](CC(C)C)C(=O)N[C@@H](Cc1c[nH]c2ccccc12)C(=O)N[C@H](CC(C)C)C(=O)N[C@@H](Cc1c[nH]c2ccccc12)C(=O)NCCO [compound 9336] (For-VGA[dL]A[dV]V[dD](NHMe)W[dL]W[dL]W[dL]W-NHCH2CH2OH),100.0%,-,1.18
CNC(=O)C[C@@H](NC(=O)[C@H](C)NC(=O)[C@@H](CC(C)C)NC(=O)[C@H](C)NC(=O)CNC(=O)[C@@H](NC=O)C(C)C)C(=O)N[C@H](C(=O)N[C@@H](C(=O)N[C@@H](Cc1c[nH]c2ccccc12)C(=O)N[C@H](CC(C)C)C(=O)N[C@@H](Cc1c[nH]c2ccccc12)C(=O)N[C@@H](C(=O)N[C@@H](Cc1c[nH]c2ccccc12)C(=O)N[C@H](CC(C)C)C(=O)N[C@@H](Cc1c[nH]c2ccccc12)C(=O)NCCO)C(C)C)C(C)C)C(C)C [compound 9352] (For-VGA[dL]A[dD](NHMe)V[dV]W[dL]W[dV]W[dL]W-NHCH2CH2OH),100.0%,-,1.18
